Values quoted from earlier work as cited in patent publication US6475478B2, “Adsorbent, adsorbing and removing process and adsorber for endogenous cannabinoid” (Kaneka Corporation, priority 2000, dated 2002).

Conditions: octanol-water system; compound fixed on the carrier

SMILES	log P
CCCCCCCCCCN [n-decyl amine]	4.07
CCCCN [n-butyl amine]	0.97
